Laboratory results as given in paper PMC5748433, “Study on the effect of EMD386088, a 5-HT6 receptor partial agonist, in enhancing the anti-immobility action of some antidepressants in rats” (Naunyn-Schmiedeberg's Archives of Pharmacology, 2017).

Test system: rats
Assay: Open field (OF) test in rats, locomotor/exploratory activity
Format: in vivo, rat
Conditions: 5-min session, mean ± SEM
Method: All drugs were dissolved in distilled water immediately before administration in a volume of 2 mL/kg. All the compounds were administered intraperitoneally (i.p.). […] Control animals received vehicle according to the same schedule.
The experiment was performed using Motor Monitor System (Campden Instruments, Ltd., UK) consisted of two SmartFrame Open Field stations (40 × 40 × 38 cm) with 16 × 16 beams, located in sound attenuating chambers and connected to PC software by control chassis. Individual vehicle- or drug-injected animals were gently placed in the center of the station. An automated motor monitor system recorded ambulation (the number of crossings in X and Y axis), the number of rearing episodes, and total distance covered by a rat for 5 min.
The data of behavioral studies were evaluated using two-way analysis of variance (ANOVA) followed by Bonferroni’s post hoc test, p < 0.05 was considered significant.

[1] = 10 mg/kg i.p. (s-citalopram 30 min, moclobemide and bupropion 60 min before test)
[2] = 15 mg/kg i.p. 30 min before test

SMILES | Exploratory activity Ambulation X [1] | Exploratory activity Ambulation Y [1] | Exploratory activity Rearings [1] | Exploratory activity Total distance (cm) [1] | Exploratory activity Ambulation Y [2] | Exploratory activity Rearings [2] | Exploratory activity Total distance (cm) [2]
O=C(NCCN1CCOCC1)c1ccc(Cl)cc1 [moclobemide] | 200 ± 26 | 192 ± 23 | 62 ± 3 | 2160 ± 183 cm | – | – | –
CN(C)CCCN1c2ccccc2CCc2ccccc21 [imipramine] | – | – | – | – | 203 ± 41 | 54 ± 3 | 2212 ± 332 cm
CN(C)CCC[C@@]1(c2ccc(F)cc2)OCc2cc(C#N)ccc21 [s-citalopram] | 197 ± 15 | 179 ± 19 | 64 ± 12 | – | – | – | –
CC(NC(C)(C)C)C(=O)c1cccc(Cl)c1 (centres unmarked) [bupropion] | 284 ± 31 | 301 ± 35 | 83 ± 9 | 3083 ± 229 cm | – | – | –
